One data set concerns primary cortical neurons. The experiment in a line: cells. It is filed as cell-based, mouse. As to conditions: for Protection against hemin-induced toxicity (in words): MTT. The procedure:
Primary cortical neuronal cultures: Primary cortical neurons were collected from embryonic (E15) CD1 mice. The cortices of the mice were dissected, homogenized, and plated in minimum essential medium containing 10% fetal bovine serum (FBS), 5% horse serum, and 1% penicillin/streptomycin in 96-well plates, 6-well plates, or 10-cm dishes. The neurons were maintained at 37° C. with 5% CO2. All experiments were conducted 24 hours after plating.
In vitro ICH model: Ferroptosis is a type of programmed cell death that is dependent on iron, and is characterized by the accumulation of lipid peroxides. Ferroptosis is genetically and biochemically distinct from other forms of regulated cell death such as apoptosis. Ferroptosis is initiated by the failure of the glutathione-dependent antioxidant defenses, resulting in unchecked lipid peroxidation and eventual cell death.
Cell death was induced in primary cortical neurons by treating the neurons with hemin, a blood breakdown product. For the neuroprotection studies, cells were treated with hemin (100 μM) in the presence of NAC (0.1 mM to 1mM), 6-hydroxy-2,5,7,8-tetramethylchroman-2-carboxylic acid (trolox; 0.1 μM to 100 μM), β-carotene (0.1 μM to 100 μM) α-lipoic acid (0.01 mM to 2 mM), glutathione ethyl ester (1 mM to 10 mM), oxothiazolidine-4-carboxylate (1 mM to 10 mM), cystamine (0.1 μM to 10 μM), or nordihydroguaiaretic acid (0.1 μM to 10 μM). Cell viability was analyzed 24 h after treatment. The cells were rinsed with warm phosphate-buffered saline (PBS) and assessed using an MTT assay. The fidelity of the MTT assays in measuring viability was verified by calcein-AM/ethidium homodimer-1 staining (Live/Dead assay).
The ability of NAC to protect cells was investigated in a hemin model of hemorrhagic stroke. The in vitro model of ICH involved the administration of hemin, a breakdown product of hemoglobin from lysed blood, to trigger cell death. Treatment of primary cortical neurons with 100 μM hemin induced widespread cell death through a ferroptotic mechanism, which was quantified with MTT and qualitatively observed using live/dead staining. Living cells were labeled with calcein-AM, and dead cells were labeled with ethidium homodimer. […] Scale bars: 100 μm.
A systematic pharmacological screening of oxidized lipid species inhibitors in the context of hemin-induced cell death was performed in primary cortical neurons. Primary cortical neurons were co-treated with hemin and a non-specific or enzymatic lipid peroxidation inhibitor. The MTT assays were performed 18 h following the co-treatment.

The test system of a further data set is lipid protein adducts. The experiment in a line: Hemin-induced lipid protein adduct formation (Bt-AA, streptavidin-HRP Western blot) in primary neurons. It is filed as cell-based, mouse. As to conditions: for AA-protein adduct formation: non-protective doses: NAC 0.1 mM, vitamin E 1 μM, zileuton 1 μM; for Lipid protein adduct formation: protective doses: NAC 1 mM, vitamin E 10 μM, zileuton 10 μM. As for the experimental part: Electrophilic attack by ALOX5 products could alter cellular protein-mediated signaling to trigger cell death. Arachidonic acid (AA) tagged with biotin (Bt-AA) was used to monitor the formation of covalent protein adducts. To test whether hemin was sufficient to catalyze the formation of protein-reactive lipid species, primary neurons were treated with hemin at concentrations of 5 μM-50 μM for 4 h. Lipid protein adducts were detected by Western blots probed with Streptavidin-HRP. Bt-AA incorporation into protein increased with increasing concentrations of hemin, and significant lipid protein adducts were detected at 50 μM hemin. […] The blot is representative from replicates of three experiments. The arrow indicates the decrease in lipid protein adduct formation.

The next data set has as its target T1, recombinant ALOX5 (Homo sapiens, UniProt P09917).
T1 sequence (P09917 1-674): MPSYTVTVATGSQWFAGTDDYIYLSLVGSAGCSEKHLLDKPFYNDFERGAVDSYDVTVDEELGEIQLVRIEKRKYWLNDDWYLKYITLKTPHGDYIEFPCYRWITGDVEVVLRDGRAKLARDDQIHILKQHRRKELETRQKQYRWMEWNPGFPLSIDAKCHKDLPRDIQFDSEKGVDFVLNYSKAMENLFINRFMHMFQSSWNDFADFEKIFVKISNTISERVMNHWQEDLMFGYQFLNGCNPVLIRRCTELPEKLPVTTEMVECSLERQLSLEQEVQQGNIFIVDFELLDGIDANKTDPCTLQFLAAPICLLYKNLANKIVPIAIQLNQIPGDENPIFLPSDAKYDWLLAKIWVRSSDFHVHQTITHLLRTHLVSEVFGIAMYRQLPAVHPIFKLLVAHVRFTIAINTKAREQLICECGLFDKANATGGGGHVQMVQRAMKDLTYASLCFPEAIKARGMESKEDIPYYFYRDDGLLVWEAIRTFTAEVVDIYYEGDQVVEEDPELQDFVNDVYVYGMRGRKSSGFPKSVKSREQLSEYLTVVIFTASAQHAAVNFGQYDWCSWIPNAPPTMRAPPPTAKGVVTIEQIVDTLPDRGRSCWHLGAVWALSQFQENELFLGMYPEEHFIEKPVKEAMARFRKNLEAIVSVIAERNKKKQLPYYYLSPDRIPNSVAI
The experiment in a line: Lipoxygenase UV/Vis-based IC50 assay with recombinant ALOX5. It is filed as biochemical. Conditions: test tube assay. The procedure: Lipoxygenase UV/Vis-based IC50 assay: Inhibition potencies were determined by following the formation of conjugated diene products, 5-HpETE [ε=27000 M^−1 cm^−1 for AA turnover) at 234 nm using a UV/Vis spectrophotometer. All reaction mixtures were 2 mL in volume, and the reaction mixtures were constantly stirred using a magnetic stir bar at room temperature (23° C.). All reactions were carried out in a buffer containing 200 μM ATP and 10 μM AA. The AA concentration of a sample was verified by full turnover with soybean-1 lipoxygenase and quantifying the product concentration. Inhibitors were stored in DMSO at −20° C. Enzymatic reactions were initiated by adding approximately 100 nM-300 nM ammonium sulfate-precipitated wildtype enzyme. IC50 values were obtained by determining the enzymatic rate at a minimum of five inhibitor concentrations, plotting the enzymatic rate against inhibitor concentration, and performing a hyperbolic saturation curve fit. Inhibitor concentrations were assayed in duplicate or triplicate.
Significance was determined by two-way ANOVA and Bonferroni's post hoc test.

Data set [1] has as its system collagenase-induced mouse model of ICH. The experiment in a line: In vivo collagenase-induced mouse model of ICH (Fluoro-Jade staining, corner task, adhesive tape removal task, hematoma size).
Protocol: In vivo collagenase-induced mouse model of ICH: Male C57BL/6 mice (8 to 10 weeks of age) or mice (10 to 12 weeks of age) were anesthetized with isoflurane (2% to 5%) and placed on a stereotaxic frame. During the procedure, the animal's body temperature was maintained at 37° C. with a homeothermic blanket. 1 mL of collagenase (0.075 IU) was infused into the right striatum at a flow rate of 0.120 μL/min using a Nanomite® syringe pump and a syringe. Relative to the bregma point, the stereotaxic coordinates of the injection were: lateral, −0.20; anteroposterior, 0.62; and dorsoventral, −0.40. In control animals, 1 mL of saline was infused. The treatment group received NAC (75 mg/kg or 300 mg/kg in normal saline, I.P.) once a day for 7 days starting at 2 h after collagenase infusion. For combinatorial studies, NAC (40 mg/kg, I.P.) and PGE 2 (10 μM, ICV) were administered to the mice 2 h after the collagenase injection, and then NAC (40 mg/kg) was administered once daily for 7 days. The control groups received the vehicle (normal saline) alone. The animals were randomized to sham or ICH groups. The identities of the mice that received vehicle or NAC were masked to surgeons who performed the experiments. […] Proper postoperative care was provided until the animals recovered completely.
Behavioral analysis: The corner task assessed integrated sensorimotor function in the stimulation of vibrissae (sensory neglect) and rearing (motor response). Mice were placed between two cardboard pieces that formed a corner with a 30° angle. While maintaining the 30° angle, the boards were gradually moved toward the mouse until the mouse approached the corner, reared upward, and turned 180° to face the open end. The direction (left or right) in which the mouse turned was recorded for each trial. Ten trials were performed for each mouse.
For the sensory neglect task (adhesive tape removal task), adhesive tape was placed on the planter region of the forward paw (right and left) of each mouse. The time from which the tape was applied to when the mouse successfully removed the tape was recorded for each paw. A maximum of 300 s for each paw was allowed.
Fluoro-Jade® B staining: Neurodegeneration of cells was assessed in mice with collagenase-induced ICH using Fluoro-Jade® B staining. 40 μM brain sections were mounted on gelatin-coated slides and dried at room temperature overnight. The sections were immersed in a graded series of alcohol solutions before being immersed in a 0.06% potassium permanganate (KMnO4) solution for 15 min. Sections were washed with water before being immersed in a 0.001% Fluoro-Jade® staining solution with gentle shaking in the dark for 30 min. The sections were then washed with water and dried overnight at room temperature in the dark before being dehydrated and coverslipped with DPX. Fluoro-Jade® B staining was examined within perihematoma or hematoma regions using a fluorescence microscope. Quantification of Fluoro-Jade® B staining was performed using three brain sections (anterior to posterior of hematoma) using Metamorph analysis.
The vehicle or NAC was then administered daily up to 7 days following the ictus. Neuronal loss was determined using a non-specific marker of neurodegeneration, Fluoro-Jade® staining. […] Mouse behavior was assessed using a corner task (spatial neglect) and an adhesive tape removal task (sensory neglect). Mouse behavior was assessed on day 1, 3, and 7 after the induction of ICH.
Where [2] appears, read: primary cortical neurons, 100 μM hemin.
Where [3] appears, read: protection from 100 μM hemin, MTT (Table 2), read-out: EC50.
The mark [4] stands for this setting: NAC 40 mg/kg i.p. and/or PGE2 10 μM ICV, days 1, 3, 7.
Setting [5] is: Mus musculus, Primary cortical neuron, protection from 100 μM hemin, MTT (Table 2), read-out: EC50.

Like-named read-outs stand apart in the source and are kept apart here.

As for `C#CCOc1ccccc1CCCCCC(=O)NS(C)(=O)=O` [MS-PPOH], the “Protection against hemin-induced toxicity (in words)” value (“Protection … (in words)” for short) with primary cortical neurons (setting [2]) is “failed to protect against hemin toxicity”.
As to `O=C(O)CCCCC1CCSS1` (stereo not drawn) [α-Lipoic acid, α-lipoic acid], in the data set with primary cortical neurons (setting [2]), the “Protection … (in words)” value is recorded as “failed to prevent hemin toxicity at any dose examined”.
Turning to `CCOC(=O)CNC(=O)[C@H](CS)NC(=O)CC[C@H](N)C(=O)O` [Glutathione ethyl ester], the “Protection … (in words)” value with primary cortical neurons (setting [2]) is reported as “prevented hemin-induced death as effectively as NAC”. In the data set with primary cortical neurons (setting [3]), the EC50 came to 2500 µM.
For `CC(C=Cc1cccc(Oc2ccc(F)cc2)c1)N(O)C(N)=O` (centres unmarked) [BW B70], the “Protection … (in words)” value in the data set with primary cortical neurons (setting [2]) is given as “significantly reduced hemin-induced toxicity”.
On the same count and under the same terms, under `CCC(=O)NC(c1cccs1)c1cc([N+](=O)[O-])c2cccnc2c1O` (centres unmarked) [NCTT-956] stands “failed to protect against hemin toxicity”.
As to Hemin, the “% Viability” value in the data set on primary cortical neurons stood at 50.14%. For the same compound, the EC50 in the data set with primary cortical neurons (hemin itself (toxic stimulus), Table 2 EC50 column, read-out: EC50) was determined as 100 µM.
Regarding `O=C1NC(C(=O)O)CS1` (centres unmarked) [Oxothiazolidine-4-carboxylate], in the data set with primary cortical neurons (setting [2]), the “Protection … (in words)” value is listed as “prevented hemin-induced death as effectively as NAC”. Also, in the data set with primary cortical neurons (setting [3]), the EC50 was 2500 µM.
Turning to `c1ccc2c(c1)SCc1c-2[nH]c2ccccc12` [PD146176], the “Protection … (in words)” value with primary cortical neurons (setting [2]) was “failed to protect against hemin toxicity”.
Turning to `Cc1c(C)c2c(c(C)c1O)CC[C@@](C)(CCC[C@H](C)CCC[C@H](C)CCCC(C)C)O2` [vitamin E, α-tocopherol], in the data set with lipid protein adducts, the AA-protein adduct formation result is given as “did not decrease AA-protein adduct formation” and the “Lipid protein adduct formation” value is on record as “decreased lipid protein adduct formation”.
`COc1ccc2c(c1)c(CC(=O)O)c(C)n2C(=O)c1ccc(Cl)cc1` [Indomethacin]: the “Protection … (in words)” value in the data set with primary cortical neurons (setting [2]) is “failed to protect against hemin toxicity”.
For the compound `CC(c1cc2ccccc2s1)N(O)C(N)=O` (centres unmarked) [Zileuton], the “Inhibition of ALOX5 activity” value on recombinant ALOX5 is given as “effective in inhibiting ALOX5”. Also, in the data set with lipid protein adducts, the AA-protein adduct formation entry is recorded as “did not decrease AA-protein adduct formation” and the “Lipid protein adduct formation” value was “decreased lipid protein adduct formation”. Besides, the EC50 with primary cortical neurons (Mus musculus, Primary cortical neuron, 100 μM hemin, primary cortical neurons, read-out: EC50 for reduction of hemin-induced toxicity/ferroptosis) was found to be 7 µM.
As for `CC1=C(/C=C/C(C)=C/C=C/C(C)=C/C=C/C=C(C)/C=C/C=C(C)/C=C/C2=C(C)CCCC2(C)C)C(C)(C)CCC1` [β-carotene], on recombinant ALOX5, the “Inhibition of ALOX5 activity” value was “did not inhibit ALOX5 activity”. Moreover, the “Protection … (in words)” value in the data set on primary cortical neurons (setting [2]) is “protected against hemin-induced toxicity”.
Turning to `CCCCC(C)(C)[C@H](O)/C=C/[C@H]1[C@H](O)CC(=O)[C@@H]1C/C=C\CCCC(=O)O` [dmPGE2, 16,16-dimethyl PGE2], in data set [1] (NAC 40 mg/kg i.p. daily 7 days and/or dmPGE2 10 μM ICV 2 h post-injury), the “Neuronal degeneration in perihematomal regions (Fluoro-Jade staining)” value is recorded as “no significant effect”. Further, in the data set on primary cortical neurons (setting [2]), the “Protection … (in words)” value is reported as “dose-dependently abrogated hemin-induced toxicity”.
In the case of `CC(=O)N(O)C/C=C/c1cccc(Oc2ccccc2)c1` [BW A4C], the EC50 with primary cortical neurons (100 μM hemin, primary cortical neurons, read-out: EC50 for reduction of hemin-induced toxicity/ferroptosis) is 5 µM.
Regarding `CC(=O)Oc1ccccc1C(=O)O` [Aspirin], in the data set on primary cortical neurons (setting [2]), the “Protection … (in words)” value was “failed to protect against hemin toxicity”.
For `CCCCC[C@H](O)/C=C/[C@H]1[C@H](O)CC(=O)[C@@H]1C/C=C\CCCC(=O)O` [PGE2, prostaglandin E2], in data set [1] (setting [4]), the “Sensory neglect (adhesive tape removal task) behavioral deficits” value is given as “no effect” and the “Spatial neglect (corner task) behavioral deficits” value is reported as “no effect”.
Regarding `NCCSSCCN` [Cystamine], the EC50 in the data set with primary cortical neurons (setting [5]) is 7.5 µM. In addition, the “Protection … (in words)” value with primary cortical neurons (setting [2]) is reported as “prevented hemin-induced death as effectively as NAC”.
For the compound `CCCCS(=N)(=O)CCC(N)C(=O)O` (centres unmarked) [BSO, buthionine sulfoximine], the “Effect on NAC-induced protection from hemin” value in the data set on primary cortical neurons (co-treatment with NAC and BSO) was “reversed NAC-induced protection”.
`Cc1c(C)c2c(c(C)c1O)CCC(C)(C(=O)O)O2` (centres unmarked) [trolox, 6-hydroxy-2,5,7,8-tetramethylchroman-2-carboxylic acid]: the “Protection … (in words)” value with primary cortical neurons (setting [2]) was “abrogated hemin-induced toxicity in a dose-dependent manner”.
Turning to `CC(Cc1ccc(O)c(O)c1)C(C)Cc1ccc(O)c(O)c1` (centres unmarked) [Nordihydroguaiaretic acid], in the data set on primary cortical neurons (setting [5]), the EC50 came to 5 µM. The “Protection … (in words)” value with primary cortical neurons (setting [2]) was “prevented hemin-induced death as effectively as NAC”.

The record behind these values is US11963939B2, “Use of N-acetylcysteine to treat central nervous system disorders” (Neuronasal, Inc., priority 2017, dated 2024).
